Assay results as given in ChEMBL document CHEMBL3988442, “University of Dundee, Small-Polar-MMV Screening Library” (2021).
Where “and” joins values, the source holds several entries; their conditions need not be identical. Equal values may be shown once.

How the values were obtained:
Histidine--tRNA ligase = target: T1, Histidine--tRNA ligase (Leishmania infantum, UniProt A4I591); test: Leishmania infantum Histidine tRNA synthetase (LdHisRS); format: functional
T1 sequence (A4I591 whole entry): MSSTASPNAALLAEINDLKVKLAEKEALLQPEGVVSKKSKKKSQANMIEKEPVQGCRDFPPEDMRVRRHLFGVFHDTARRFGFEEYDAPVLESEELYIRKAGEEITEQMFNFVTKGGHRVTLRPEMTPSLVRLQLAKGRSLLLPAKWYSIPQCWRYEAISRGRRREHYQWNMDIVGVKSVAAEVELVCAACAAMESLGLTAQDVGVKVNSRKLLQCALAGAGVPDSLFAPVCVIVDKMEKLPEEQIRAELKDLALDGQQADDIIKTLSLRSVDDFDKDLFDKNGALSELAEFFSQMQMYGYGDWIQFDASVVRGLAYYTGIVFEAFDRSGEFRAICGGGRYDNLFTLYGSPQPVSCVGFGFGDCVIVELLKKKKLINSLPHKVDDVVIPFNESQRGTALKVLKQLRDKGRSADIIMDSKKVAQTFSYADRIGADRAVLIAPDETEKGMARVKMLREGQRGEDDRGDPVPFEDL

Plasmodium falciparum = test: Calibr Malaria Delayed Death Assay SOP; format: functional, organism-based; conditions: for IC50: Plasmodium falciparum
[1] = microbe, parasite or virus in culture; conditions: Mycobacterium tuberculosis, 96 h, read-out: pIC50 (converted)
[2] = microbe, parasite or virus in culture; conditions: Mycobacterium tuberculosis, 72 h, read-out: pIC50 (converted)
[3] = In vitro enzyme assay to detect hydrolysis of chlorophenol red-beta-D-[…] directly proportional to the number of Toxoplasma stably expressing beta-galactosidase; format: functional, organism-based, Toxoplasma gondii; conditions: for IC50: Toxoplasma gondii
Leishmania donovani = test: Leishmania intramacrophage assay; format: functional, organism-based; conditions: for IC50: Leishmania donovani
Schistosoma mansoni = test: High throughput screening of compounds against Schistosoma mansoni motility; format: functional; set-up: dose or concentration left out as unconfirmed
Tryptophan--tRNA ligase = Tryptophan--tRNA ligase (Mycobacterium tuberculosis (strain ATCC 25618 / H37Rv), UniProt P9WFT3); test: Biochemical assay for Mt-TrpRS; format: functional
ClpP1P2 = ClpP1P2 (Mycobacterium tuberculosis (strain ATCC 25618 / H37Rv), UniProt P9WPC3+P9WPC5); test: in vitro assay to detect presence of AMC directly proportional to the activity of ClpP1P2. GHDDI collaboration.; format: functional

Structure (SMILES)	IC50 (Histidine--tRNA ligase)	pIC50 (Leishmania donovani)	IC50 (Leishmania donovani)	further results
CCC1CN(CC(=O)NCCN2CCCCCC2)c2ccccc2S1 (stereo not given)	39.1 µM and 39.7 µM			pIC50 (Plasmodium falciparum): 5.947; IC50 (Plasmodium falciparum): 1.33 µM; IC50 [1]: > 50.1 µM; IC50 [2]: 44.8 µM
O=C(Nc1nccs1)c1csc(NC2CCCC2)n1	30.3 µM and 43.9 µM			IC50 [3]: 4.36 µM; IC50 [1]: 34.5 µM; IC50 [2]: 28.4 µM
CC(=O)c1c(C)nn(CC(=O)Nc2ccc(Br)cc2)c1C	6.08 µM and 7.13 µM			IC50 [3]: 7.32 µM; IC50 [2]: 8.6 µM
COc1ccc(NC(=O)Cn2nc(C)c(C(C)=O)c2C)cc1	17.2 µM and 14 µM			IC50 [3]: 3.61 µM; pIC50 (Plasmodium falciparum): 6.455; IC50 (Plasmodium falciparum): 0.421 µM; IC50 [1]: 19 µM; IC50 [2]: 22.1 µM
CC(C)Nc1nc2c(c(NC3CC3)n1)CCN(C1CCOCC1)CC2		4.789	13 µM	
Cc1ccc(CN2Cc3c(cnn3C)C(COCC3CC3)C2)s1 (stereo not given)		5.151 and 4.71		
Cc1[nH]/c(=N\C(=O)c2csc(NC3CCCC3)n2)sc1C	18 µM and 18.2 µM			pIC50 [3]: 5.387; IC50 [3]: 3.16 µM; IC50 [1]: > 50.1 µM; IC50 [2]: 19.8 µM
Cc1cnc2n(c1=O)CC(C(=O)Nc1cccc3cccnc13)CS2 (stereo not given)	78.6 µM and 68.6 µM			Percent Effect (Schistosoma mansoni): -85.49%
CCOc1ccc(CNCCCn2ccnc2)cc1Br		4.774	14.4 µM	
CC(C)C[C@H](N)COc1cccc(F)c1Oc1ccccc1		4.696	12.5 µM	
COc1ccccc1C(=O)NC(c1ccccn1)[C@H]1CC[C@H](CN)CC1 (stereo not given in full)	9.74 µM and 9.59 µM			IC50 (Tryptophan--tRNA ligase): > 195 µM
COCC(O)CNc1cncc(Br)c1 (stereo not given)	> 100 µM			IC50 (Tryptophan--tRNA ligase): > 195 µM
CCCC(O)CNc1cncc(Br)c1 (stereo not given)	> 100 µM			IC50 (Tryptophan--tRNA ligase): > 195 µM; IC50 [1]: 21.7 µM; IC50 [2]: > 50.1 µM
CN1CCC(N(Cc2ccco2)S(=O)(=O)c2cc(Br)ccc2Br)CC1		4.867	17.8 µM	
Clc1cc(CN2CCCN3CCCC3C2)c2ncccc2c1 (stereo not given)	26.6 µM and 21.9 µM			pIC50 (Plasmodium falciparum): 5.897; IC50 (Plasmodium falciparum): 1.3 µM; IC50 [1]: 12.2 µM; IC50 [2]: 8.48 µM
CCn1nc2c(cc1=O)CN(c1ncnc3sccc13)CC2	15.5 µM and 11.5 µM			IC50 [3]: 15 µM
COc1ccccc1CN(C)C(=O)CN1CC(n2nc(C)cc2C)C1		4.762	19.1 µM	
CCn1nc2c(cc1=O)CN(c1ncnc3ccsc13)CC2	54.3 µM and 39.8 µM			IC50 [3]: 11.2 µM
COCC(=O)Nc1ccnn1-c1ccc(Cl)cc1		4.861	13.5 µM	
Cc1cc(=O)n2nc(Oc3ccc(Cl)c(C)c3)sc2n1		4.378	> 50.1 µM	

Structure (SMILES)	IC50 (Histidine--tRNA ligase)	pIC50 (Leishmania donovani)	IC50 (Leishmania donovani)	further results
Cc1cc(NC(=O)CN2CCc3nn(C)c(=O)cc3C2)on1	71.2 µM and 54.8 µM			Percent Effect (Schistosoma mansoni): -32.24%
Cn1nc2c(cc1=O)CN(CCc1nc3ccccc3c(=O)[nH]1)CC2	67.7 µM and 54.2 µM			Percent Effect (Schistosoma mansoni): -34.74%
CCc1ccc(-c2ncc3c(n2)N(C)CCN(CCN(C)C)C3=O)cc1		4.813	10.3 µM	
Cc1nc2c(c(NCC(O)c3ccccc3Cl)n1)CCNCC2 (stereo not given)		4.337	44.8 µM	
Cn1ccc2c(-c3cc(N4CCCCC4)ncn3)ccnc21	54.3 µM and 45.7 µM			IC50 (ClpP1P2): > 100 µM
Clc1ccccc1-c1cc(CNc2ncnc3c2CCNCC3)no1		4.821	12 µM	
NC(=O)c1cnc2n1CCN(C(=O)c1ccc(Cn3cccc3)cc1)C2	22.7 µM and 17.3 µM			IC50 (ClpP1P2): > 100 µM
Cc1nc2c(c(NCc3ccc(-c4ccccn4)s3)n1)CCNCC2		4.913	17.9 µM	
CN(Cc1cc2cc(F)ccc2[nH]1)c1cc(C2CCCNC2)ncn1 (stereo not given)		4.89	21.5 µM	
Cc1cccnc1[C@H](C)Nc1nc(-c2cccnc2)nc2c1CNC2	36.4 µM and 22.4 µM			pIC50 (Plasmodium falciparum): 5.936; IC50 (Plasmodium falciparum): 0.951 µM
CCc1nc2c(N3CCC4(CC3)CC(=O)N(CC(C)C)C4)ncnc2o1		4.305	> 50.1 µM	
CCOc1ccc(-c2c(-c3ccccc3)ncn2C2CCNC2)cn1 (stereo not given)		4.374	> 50.1 µM	
Cc1c(CN2CC[C@@H](N3CCC(O)CC3)[C@H](O)C2)[nH]c2ccc(Cl)cc12		4.995	10.7 µM	
NCC1Cc2cc(Cl)cc(-c3cncc(C(=O)N4CCCCC4)n3)c2O1 (stereo not given)		4.491	20.8 µM	
Cn1ncc2c(N3CCCC4(CCNC4)C3)nc(C(C)(C)C)nc21 (stereo not given)		4.611 and 4.922		
Cc1cc(C)n(CC(=O)N2C[C@@H]3CC[C@H](C2)N(CC2CCC2)C3)c(=O)n1	16.8 µM and 12 µM			IC50 (ClpP1P2): > 100 µM
Cn1cc(-c2c(C#N)c(N)nc3c2CCc2[nH]ccc2-3)cn1	11.2 µM and 16.9 µM			IC50 (ClpP1P2): > 100 µM
COc1ccc(-c2cc(CNc3ncnc4c3CCNCC4)no2)cc1		4.744	22.5 µM	
CC(=O)Nc1ccc2nc(CN(C)Cc3snnc3C)ccc2c1	51.3 µM and 57.2 µM			IC50 (ClpP1P2): > 100 µM
Cn1cc(-c2c(C#N)c(N)nc3c2CCc2[nH]ccc2-3)cc1C#N	28 µM and 21.7 µM			IC50 (ClpP1P2): > 100 µM

Structure (SMILES)	IC50 (Histidine--tRNA ligase)	pIC50 (Leishmania donovani)	IC50 (Leishmania donovani)	further results
CCC[C@@H]1CN(C(=O)c2cc3ccccc3cc2O)C[C@H]1N(C)C	38 µM and 45 µM			IC50 (ClpP1P2): > 100 µM
CC(C)COc1cccc(-c2nc3c([nH]2)CCNC3)c1		4.688	19.2 µM	
c1ccc2sc(N3CCCN(c4ncnc5c4CCNC5)CC3)nc2c1	76.9 µM and 73.9 µM			pIC50 (Plasmodium falciparum): 5.791; IC50 (Plasmodium falciparum): 1.56 µM
N#CC1CCCN(c2nc(-c3ccccc3)nc3c2CCNCC3)C1 (stereo not given)		4.667	20.6 µM	
COCCNc1nc(C2CCCC2)nc2c1CCNCC2		4.615	17.4 µM	
Cc1c(CN2CCOCC2)c(O)n(CCO)c(=O)c1C#N	35.3 µM and 35.6 µM			IC50 (Tryptophan--tRNA ligase): > 195 µM
N#CCCSc1sc2c(O)cc(O)nc2c1C#N	18.7 µM and 27.5 µM			IC50 (Tryptophan--tRNA ligase): > 195 µM
CNc1cc2c(nn1)CCN(C(=O)c1coc(Br)c1)C2	51.3 µM and 66.4 µM			IC50 (ClpP1P2): > 100 µM
Cc1nccn1CCCn1cncc1-c1ccc2c(c1)CCC(C)N2C (stereo not given)	6.86 µM and 7.15 µM			IC50 (ClpP1P2): > 100 µM
CCN1c2ccc(-c3cncn3CCCn3ccnc3C)cc2CC1C.Cl (stereo not given)	39.6 µM and 37.5 µM			IC50 (ClpP1P2): > 100 µM; IC50 [1]: 46.6 µM; IC50 [2]: 42.9 µM
O=C(Cn1c(-c2ccco2)cc2cccnc21)N1CCCC1	21.5 µM and 27.9 µM			IC50 (ClpP1P2): > 100 µM
COc1cccc(Nc2nc(-c3ccncc3)nc3c2CNCC3)c1.Cl		4.645 and 4.976		
COc1cccc(Nc2nc(N3CCCC3)nc3c2CNCC3)c1.Cl		5.277	4.47 µM	
Cl.NCC(=O)N1CCC(c2ccnc(Nc3cc(C(F)(F)F)ccn3)n2)C1 (stereo not given)		4.798	15 µM	
Cc1nc(C2(O)CCCNCC2)sc1CCOc1ccccc1Cl.Cl (stereo not given)		5.014	12.5 µM	
Cc1nc(C2(O)CCCNCC2)sc1CCOc1ccccc1.Cl (stereo not given)		4.482	24.2 µM	
CCC(N)C(=O)N1CCC(OCc2ccc(Cl)c(Cl)c2)CC1.Cl (stereo not given)		4.694	21.5 µM	
CC(C)C[C@H](N)C(=O)N1CC2(CCNCC2)c2cc(Cl)ccc21.Cl.Cl		4.898 and 5.256		
CCc1ccc(CN2CCC3(CC2)CC(N2CCN(C)CC2)CO3)cc1.O=C(O)C(F)(F)F (stereo not given)		4.908 and 5.404		
